Experimental data as given in US10668048B2, “Compounds for inhibiting bacterial growth via phosphatidylglycerol binding” (Wichita State University, priority 2016, dated 2020).
Values after ≈ are worked out from the molar mass of the structure shown.

Assays:
[1] = tested on: A549 (lung carcinoma epithelial) cells; assay: LDH release cytotoxicity assay; type: cell-based; conditions: near 15 μM
Experimental: (§1) Toxicity Studies of human HeLa (vaginal carcinoma) and A549 (lung carcinoma epithelial) cells with Liptins 1h and 1k.
(§2) Eukaryote cell toxicity was determined using a Pierce LDH assay kit including the Chemical Compound-Mediated Cytotoxicity assay. This kit measures cell death by measuring the amount of lactate dehydrogenase released from cells. Lactate dehydrogenase (LDH) is a cytosolic enzyme present in many different types of cells. When the plasma membrane is damaged, LDH is released into cell culture media. The released LDH can be quantified by a coupled enzymatic reaction. First, LDH catalyzes the conversion of lactate to pyruvate via reduction of NAD+ to NADH. Second, diaphorase uses NADH to reduce a tetrazolium salt (INT) to a red formazan product. Therefore, the level of formazan formation is directly proportional to the amount of released LDH in the medium.

[2] = tested on: human HeLa (vaginal carcinoma) cells; assay: LDH release cytotoxicity assay; type: cell-based; conditions: up to about 15 μM
Experimental: as §1, §2

MRSA [3] = assay: Live-Dead stain (BacLight SYTO 9 / propidium iodide); type: cell-based, Methicillin-resistant S. aureus; conditions: 90 minutes
Experimental: (§3) Molecular Probes BacLight© kits containing the SYTO 9 green-fluorescent dye and propidium iodide red-fluorescent dye were used to detect live or dead bacteria after ninety minute exposure of bacteria to liptins 1h or 1k. Bacteria in Muller Hinton culture were grown to an OD=0.3, were inoculated with liptins 1h and 1k and after ninety minutes stained with a mixture of the above dyes and affixed to a slide to be examined under a light microscope (40×) to determine the number of live and dead cells (green colored cells considered alive and red-colored cells considered dead). Data was calculated based upon an average of 5 different plate counts from each slide, and is based on a percent of total bacteria counted (live and dead). Control sample contains no liptin.

[4] = tested on: Gram-positive and Gram-negative bacteria; assay: Growth curves in BHI culture with liptins 1h-k; type: cell-based; conditions: one inoculation
Experimental: Growth curves in BHI culture were generated (not shown) from liquid shake-flask cultures using absorbance measurements at 600 nm at different concentrations of liptins 1h-k. Uninoculated control flasks were used as blanks. Absorbance values of 0.1 OD unit was considered reasonable threshold for positive growth. The use of the nutrient-rich BHI culture allowed us to measure the effects of the small structural differences in liptins 1h-k on bacterial growth rates over long periods of time. […] Liptin exposure appears to stop bacterial growth, as evidenced by long lag phases, which increase with liptin concentration, and growth rates and maximum cell densities are decreased with liptin treatment.

MRSA [5] = assay: MIC in cation-adjusted Muller Hinton culture; type: cell-based, Methicillin-resistant S. aureus; conditions: no growth after 24 hours
Experimental: (§4) MICs were determined in cation-adjusted Muller Hinton culture. Standard CLSI protocol for serial dilutions of liptin concentrations were used to determine the MIC, starting at 0.01 OD. Two different experimental cultures were used and each data point measured in triplicate.

Mycobacterium smegmatis [6] = assay: MBC in cation-adjusted Muller Hinton culture; type: cell-based
Experimental: as §4, with “Minimum bactericidal concentration (MBC)” for “MICs”, “MBC,” for “MIC,”

Acinetobacter baumannii [7] = assay: MBC in cation-adjusted Muller Hinton culture; type: cell-based
Experimental: as §4, with “Minimum bactericidal concentration (MBC)” for “MICs”, “MBC,” for “MIC,”

Escherichia coli [8] = assay: MBC in cation-adjusted Muller Hinton culture; type: cell-based
Experimental: as §4, with “Minimum bactericidal concentration (MBC)” for “MICs”, “MBC,” for “MIC,”

Klebsiella pneumoniae [9] = assay: MBC in cation-adjusted Muller Hinton culture; type: cell-based
Experimental: as §4, with “Minimum bactericidal concentration (MBC)” for “MICs”, “MBC,” for “MIC,”

Staphylococcus aureus [10] = assay: MBC in cation-adjusted Muller Hinton culture; type: cell-based
Experimental: as §4, with “Minimum bactericidal concentration (MBC)” for “MICs”, “MBC,” for “MIC,”

E. coli = assay: BacLight Bacterial Membrane Potential kit, plasma membrane depolarization; type: cell-based; conditions: one half the liptins' MICs; concentration dependent
Experimental: (§5) The Molecular Probes BacLight® Bacterial Membrane Potential kit was used to detect changes in the polarization of the bacterial plasma membrane upon inoculation of bacteria with varying concentrations of liptins 1h or 1k. […] CCCP (carbonyl cyanide 3-chlorophenylhydrazone) is a proton ionophore that destroys plasma membrane potential and as such is a positive control. […] With plasma membrane depolarization the bacterial cell loses its ability to synthesize ATP and proteins. Additionally loss of membrane potential stops the ability for cell replication due to an inability for proper placement of divisome proteins in the plasma membrane. […] Thus, it is possible that the liptin's mechanism of action is a result of their deleterious effect on the functioning of electron transport proteins found in the plasma membrane.

S. aureus = assay: as above; type: cell-based; conditions: one half the liptins' MICs; concentration dependent
Experimental: as §5

Mycobacterium smegmatis [11] = assay: Live-Dead stain (BacLight SYTO 9 / propidium iodide); type: cell-based; conditions: 5 μM, 90 minutes
Experimental: as §3

Acinetobacter baumannii [12] = assay: as above; type: cell-based; conditions: 5 μM, 90 minutes
Experimental: as §3

Escherichia coli [13] = assay: as above; type: cell-based; conditions: 10 μM, 90 minutes
Experimental: as §3

Klebsiella pneumoniae [14] = assay: as above; type: cell-based; conditions: 90 minutes
Experimental: as §3

Staphylococcus aureus [15] = assay: as above; type: cell-based; conditions: 5 μM, 90 minutes
Experimental: as §3

MRSA [16] = assay: MBC in cation-adjusted Muller Hinton culture; type: cell-based, Methicillin-resistant S. aureus
Experimental: as §4, with “Minimum bactericidal concentration (MBC)” for “MICs”, “MBC,” for “MIC,”

[17] = Liptin-PG binding in solution (ITC and/or 1H NMR titration)
Experimental: The lipid binding ability of liptins 1-3 (FIG. 2A) have been investigated in solution using isothermal titration calorimetry (ITC) and/or ^1H NMR. Stoichiometry of binding was accomplished with Job plots using ^1H NMR. […] The use of organic solvents allowed the determination of binding motif using ^1H NMR.
Liptins 1b, 1e, 2c, 2d, 3a, 3c in DMF/5% CHCl3; 3e in 50% DMSO, 45% CHCl3, 5% CH3OH.
Liptins 1h and 1i 40% DMSO, 60% CHCl3, 3f in 20% DMSO, 80% CHCl3.

Mycobacterium smegmatis [18] = assay: MIC in cation-adjusted Muller Hinton culture; type: cell-based; conditions: no growth after 24 hours
Experimental: as §4

Acinetobacter baumannii [19] = assay: MIC in cation-adjusted Muller Hinton culture; type: cell-based; conditions: no growth after 24 hours
Experimental: as §4

Escherichia coli [20] = assay: MIC in cation-adjusted Muller Hinton culture; type: cell-based; conditions: no growth after 24 hours
Experimental: as §4

Klebsiella pneumoniae [21] = assay: MIC in cation-adjusted Muller Hinton culture; type: cell-based; conditions: no growth after 24 hours
Experimental: as §4

Staphylococcus aureus [22] = assay: MIC in cation-adjusted Muller Hinton culture; type: cell-based; conditions: no growth after 24 hours
Experimental: as §4

Pseudomonas aeruginosa = assay: MIC in cation-adjusted Muller Hinton culture; type: cell-based; conditions: no growth after 24 hours
Experimental: as §4

[23] = tested on: Gram-negative and Gram-positive bacteria; assay: MIC/MBC in Muller Hinton culture, summary over the bacteria tested; type: cell-based
Experimental: as §4
as §4, with “Minimum bactericidal concentration (MBC)” for “MICs”, “MBC,” for “MIC,”

[24] = Inorganic phosphate anion binding in DMF solution
From the text: Liptins 2a-2d (FIG. 2A) have been prepared and characterized, but not published. However, example syntheses of several precursors required for the preparation of liptins 2a-2d, via precursors 7-8, utilizing soluble copper catalyst developed in our laboratory to couple the two aromatic rings and to elaborate the ring structure is based upon our previous experience, as is our methodology to efficiently ureidoalkylate the bis-phenol intermediates (FIG. 5). […] In contrast, inorganic phosphate anion bound more tightly to 2c (Ka=10^3 M^−1), indicating the anion binding unit with […] linking the two phenolic oxygens was a complementary fit for phosphate anion. By adding two additional methylene groups to the bridge linking the two rings [i.e., now (CH2)5, 2d], the size of the pocket better accommodates the PG head group, leading to increased […] with a Ka≈500 M^−1 in DMF. To further increase binding affinity, we changed the 3-hydroxypropane para-substituent into a 2,3-propane diol para-substituent (seen in 8 prepared from 7, FIG. 5). This increased the number of possible interactions between the liptin and the PG glycerol hydroxyls and reduced possible conformational constraints in the binding pocket when only two hydroxyl groups are present. […]

SMILES	cytotoxicity (LDH release) [1]	cell toxicity (LDH release) [2]	Dead (MRSA [3]; 5 μM)	Live (MRSA [3]; 5 μM)	Dead (MRSA [3]; 10 μM)	Live (MRSA [3]; 10 μM)	antibacterial activity from growth curves [4]	MIC (MRSA [5])	MBC (Mycobacterium smegmatis [6])	MBC (Acinetobacter baumannii [7])	MBC (Escherichia coli [8])	MBC (Klebsiella pneumoniae [9])	MBC (Staphylococcus aureus [10])	plasma membrane depolarization (red/green fluorescence ratio) (E. coli)	plasma membrane depolarization (red/green fluorescence ratio) (S. aureus)	Dead (Mycobacterium smegmatis [11])	Live (Mycobacterium smegmatis [11])	Dead (Acinetobacter baumannii [12])	Live (Acinetobacter baumannii [12])	Dead (Escherichia coli [13])	other results
CCCCCCNC(=O)CCc1ccc2c(c1)CNCCCNCc1cc(CCC(=O)NCCCCCC)ccc1OCCCCCO2 [Liptin 1h]	over 25%	large toxicity	72%	28%	84%	15%	most potent	3 µM (≈ 1.99 µg/mL)	11.5 µM (≈ 7.65 µg/mL)	8.5 µM (≈ 5.65 µg/mL)	9 µM (≈ 5.98 µg/mL)	8.5 µM (≈ 5.65 µg/mL)	11 µM (≈ 7.31 µg/mL)	large membrane depolarization	large membrane depolarization	93%	7%	88%	12%	75%	Live (Escherichia coli [13]): 35%; Dead (Klebsiella pneumoniae [14]; 5 μM): 67%; Live (Klebsiella pneumoniae [14]; 5 μM): 33%; Dead (Klebsiella pneumoniae [14]; 10 μM): 100%; Live (Klebsiella pneumoniae [14]; 10 μM): 0%; Dead (Staphylococcus aureus [15]): 39%; Live (Staphylococcus aureus [15]): 61%; MBC (MRSA [16]): 10 µM (≈ 6.65 µg/mL); Ka ([17]; ITC or NMR titrations, 40% DMSO, 60% CHCl3): 4600 M⁻¹; MIC (Mycobacterium smegmatis [18]): 2.5 µM (≈ 1.66 µg/mL); MIC (Acinetobacter baumannii [19]): 2.5 µM (≈ 1.66 µg/mL); MIC (Escherichia coli [20]): 2 µM (≈ 1.33 µg/mL); MIC (Klebsiella pneumoniae [21]): 3 µM (≈ 1.99 µg/mL); MIC (Staphylococcus aureus [22]): 2.5 µM (≈ 1.66 µg/mL); MIC (Pseudomonas aeruginosa): 9 µM (≈ 5.98 µg/mL)
CCCCCCNC(=O)Cc1ccc2c(c1)CNCCCCNCc1cc(CC(=O)NCCCCCC)ccc1OCCCCO2 [Liptin 1k]	around 8%	no cell toxicity	70%	30%	100%	0%	most potent	2.5 µM (≈ 1.59 µg/mL)	9.5 µM (≈ 6.05 µg/mL)	7.5 µM (≈ 4.78 µg/mL)	7.5 µM (≈ 4.78 µg/mL)	9.5 µM (≈ 6.05 µg/mL)	9.5 µM (≈ 6.05 µg/mL)	large membrane depolarization	large membrane depolarization	100%	0%	97%	3%	65%	Live (Escherichia coli [13]): 35%; Dead (Klebsiella pneumoniae [14]; 5 μM): 100%; Live (Klebsiella pneumoniae [14]; 5 μM): 0%; Dead (Staphylococcus aureus [15]): 42%; Live (Staphylococcus aureus [15]): 58%; MBC (MRSA [16]): 11.5 µM (≈ 7.32 µg/mL); MICs determined for the 6 bacteria [23]: 1.5 to 2.5 µM; MIC (Mycobacterium smegmatis [18]): 2 µM (≈ 1.27 µg/mL); MIC (Acinetobacter baumannii [19]): 2 µM (≈ 1.27 µg/mL); MIC (Escherichia coli [20]): 1.5 µM (≈ 0.955 µg/mL); MIC (Klebsiella pneumoniae [21]): 2.5 µM (≈ 1.59 µg/mL); MIC (Staphylococcus aureus [22]): 2 µM (≈ 1.27 µg/mL); MIC (Pseudomonas aeruginosa): 8 µM (≈ 5.1 µg/mL)
O=C(NCc1cc(CCCO)cc2c1OCOc1c(cc(CCCO)cc1CNC(=O)Nc1ccccc1)CCC2)Nc1ccccc1 [Liptin 2c]	–	–	–	–	–	–	–	–	–	–	–	–	–	–	–	–	–	–	–	–	Ka ([17]; ITC, DMF/5% CHCl3, 1:1 binding stoichiometry): 420 M⁻¹; Ka for inorganic phosphate anion [24]: 10^3 M^−1
